From PubChem BioAssay (NCI)
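48-hour exposure; five concentrations; linearly interpolated endpoints. At the TGI there is no net growth.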

Experiments:
Assay in all cases: NCI anticancer screen, dose series, 48 h
MCF7 breast = test system: MCF7 breast
HCT-116 colon = test system: HCT-116 colon
786-0 renal = test system: 786-0 renal
NCI/ADR-RES ovarian = test system: NCI/ADR-RES ovarian
OVCAR-3 ovarian = test system: OVCAR-3 ovarian
DU-145 prostate = test system: DU-145 prostate
T-47D breast = test system: T-47D breast
NCI-H23 lung = test system: NCI-H23 lung
RXF 393 renal = test system: RXF 393 renal
SNB-19 CNS = test system: SNB-19 CNS
SF-295 CNS = test system: SF-295 CNS
SK-MEL-28 melanoma = test system: SK-MEL-28 melanoma
NCI-H460 lung = test system: NCI-H460 lung
MDA-N = test system: MDA-N
CAKI-1 renal = test system: CAKI-1 renal
HOP-62 NSCLC = test system: HOP-62 NSCLC
PC-3 prostate = test system: PC-3 prostate
MDA-MB-231 breast = test system: MDA-MB-231 breast
HT29 colon = test system: HT29 colon
OVCAR-8 ovarian = test system: OVCAR-8 ovarian
UACC-62 melanoma = test system: UACC-62 melanoma
UACC-257 melanoma = test system: UACC-257 melanoma
SW-620 colon = test system: SW-620 colon
NCI-H522 lung = test system: NCI-H522 lung
A549 NSCLC = test system: A549 NSCLC
SK-MEL-2 melanoma = test system: SK-MEL-2 melanoma
TK-10 renal = test system: TK-10 renal
HCT-15 colon = test system: HCT-15 colon
MDA-MB-435 = test system: MDA-MB-435
IGROV1 ovarian = test system: IGROV1 ovarian
U251 CNS = test system: U251 CNS
SK-MEL-5 melanoma = test system: SK-MEL-5 melanoma
SN12C renal = test system: SN12C renal
SF-539 CNS = test system: SF-539 CNS
SK-OV-3 ovarian = test system: SK-OV-3 ovarian
SR leukemia = test system: SR leukemia
COLO 205 colon = test system: COLO 205 colon
HOP-92 NSCLC = test system: HOP-92 NSCLC
HS 578T breast = test system: HS 578T breast
OVCAR-5 ovarian = test system: OVCAR-5 ovarian
K-562 leukemia = test system: K-562 leukemia
MOLT-4 leukemia = test system: MOLT-4 leukemia
ACHN renal = test system: ACHN renal
UO-31 renal = test system: UO-31 renal
OVCAR-4 ovarian = test system: OVCAR-4 ovarian
SNB-75 CNS = test system: SNB-75 CNS
BT-549 breast = test system: BT-549 breast
M14 melanoma = test system: M14 melanoma
RPMI-8226 leukemia = test system: RPMI-8226 leukemia
SF-268 CNS = test system: SF-268 CNS
HL-60(TB) leukemia = test system: HL-60(TB) leukemia
LOX IMVI melanoma = test system: LOX IMVI melanoma
NCI-H226 lung = test system: NCI-H226 lung
KM12 colon = test system: KM12 colon
MALME-3M melanoma = test system: MALME-3M melanoma
HCC-2998 colon = test system: HCC-2998 colon
EKVX NSCLC = test system: EKVX NSCLC
A498 renal = test system: A498 renal

## O=C1O[C@]2(c3ccccc3)C(c3ccccc3)=C[C@]2(C(=O)c2ccccc2)C1=O
MCF7 breast
  TGI: 81.8 µM
HCT-116 colon
  TGI: > 100 µM
786-0 renal
  TGI: 85.7 µM
NCI/ADR-RES ovarian
  TGI: > 100 µM
OVCAR-3 ovarian
  TGI: > 100 µM
DU-145 prostate
  TGI: > 100 µM
T-47D breast
  TGI: > 100 µM
NCI-H23 lung
  TGI: > 100 µM
RXF 393 renal
  TGI: 5.13 µM
SNB-19 CNS
  TGI: > 100 µM
SF-295 CNS
  TGI: > 100 µM
SK-MEL-28 melanoma
  TGI: > 100 µM
NCI-H460 lung
  TGI: 71.6 µM
MDA-N
  TGI: > 100 µM
CAKI-1 renal
  TGI: > 100 µM
HOP-62 NSCLC
  TGI: > 100 µM
PC-3 prostate
  TGI: > 100 µM
MDA-MB-231 breast
  TGI: 99.1 µM
HT29 colon
  TGI: > 100 µM
OVCAR-8 ovarian
  TGI: > 100 µM
UACC-62 melanoma
  TGI: > 100 µM
UACC-257 melanoma
  TGI: > 100 µM
SW-620 colon
  TGI: 45.1 µM
NCI-H522 lung
  TGI: 48.5 µM
A549 NSCLC
  TGI: > 100 µM
SK-MEL-2 melanoma
  TGI: 74.6 µM
TK-10 renal
  TGI: 73.5 µM
HCT-15 colon
  TGI: > 100 µM
MDA-MB-435
  TGI: > 100 µM
IGROV1 ovarian
  TGI: > 100 µM
U251 CNS
  TGI: 93.5 µM
SK-MEL-5 melanoma
  TGI: > 100 µM
SN12C renal
  TGI: > 100 µM
SF-539 CNS
  TGI: 50.8 µM
SK-OV-3 ovarian
  TGI: > 100 µM
SR leukemia
  TGI: 30.7 µM
COLO 205 colon
  TGI: > 100 µM
HOP-92 NSCLC
  TGI: 64.8 µM
HS 578T breast
  TGI: > 100 µM
OVCAR-5 ovarian
  TGI: > 100 µM
K-562 leukemia
  TGI: 54.3 µM
MOLT-4 leukemia
  TGI: 22.3 µM
ACHN renal
  TGI: > 100 µM
UO-31 renal
  TGI: 61.1 µM
OVCAR-4 ovarian
  TGI: > 100 µM
SNB-75 CNS
  TGI: > 100 µM
BT-549 breast
  TGI: > 100 µM
M14 melanoma
  TGI: > 100 µM
RPMI-8226 leukemia
  TGI: 64.9 µM
SF-268 CNS
  TGI: > 100 µM
HL-60(TB) leukemia
  TGI: 22.4 µM
LOX IMVI melanoma
  TGI: 79 µM
NCI-H226 lung
  TGI: 98.6 µM
KM12 colon
  TGI: > 100 µM
MALME-3M melanoma
  TGI: > 100 µM
HCC-2998 colon
  TGI: 39.2 µM
EKVX NSCLC
  TGI: > 100 µM
A498 renal
  TGI: > 100 µM

## Cc1ccc2nc(N/N=C/c3cccc(C)n3)cc(C)c2c1
MCF7 breast
  TGI: 32.5 µM
HCT-116 colon
  TGI: 32.1 µM
786-0 renal
  TGI: 33.7 µM
NCI/ADR-RES ovarian
  TGI: 48 µM
OVCAR-3 ovarian
  TGI: 30 µM
DU-145 prostate
  TGI: 36.3 µM
T-47D breast
  TGI: 38.7 µM
NCI-H23 lung
  TGI: 43.2 µM
RXF 393 renal
  TGI: 31.6 µM
SNB-19 CNS
  TGI: 44.8 µM
SF-295 CNS
  TGI: 31.6 µM
SK-MEL-28 melanoma
  TGI: 33.2 µM
NCI-H460 lung
  TGI: 23.2 µM
MDA-N
  TGI: 32.5 µM
CAKI-1 renal
  TGI: 31 µM
HOP-62 NSCLC
  TGI: 36.8 µM
PC-3 prostate
  TGI: 37.2 µM
MDA-MB-231 breast
  TGI: 36 µM
HT29 colon
  TGI: 27.3 µM
OVCAR-8 ovarian
  TGI: 49.5 µM
UACC-62 melanoma
  TGI: 29.8 µM
UACC-257 melanoma
  TGI: 31.8 µM
SW-620 colon
  TGI: 40.4 µM
NCI-H522 lung
  TGI: 39.8 µM
A549 NSCLC
  TGI: 43.4 µM
SK-MEL-2 melanoma
  TGI: 34.8 µM
TK-10 renal
  TGI: 30.4 µM
HCT-15 colon
  TGI: 52.7 µM
MDA-MB-435
  TGI: 32 µM
IGROV1 ovarian
  TGI: 32 µM
U251 CNS
  TGI: 33.4 µM
SK-MEL-5 melanoma
  TGI: 36.4 µM
SN12C renal
  TGI: 34.2 µM
SF-539 CNS
  TGI: 38.3 µM
SK-OV-3 ovarian
  TGI: 30.2 µM
SR leukemia
  TGI: 45.3 µM
COLO 205 colon
  TGI: 32.6 µM
HOP-92 NSCLC
  TGI: 37.2 µM
HS 578T breast
  TGI: 50.9 µM
OVCAR-5 ovarian
  TGI: 28.5 µM
K-562 leukemia
  TGI: > 100 µM
ACHN renal
  TGI: 31.4 µM
UO-31 renal
  TGI: 41.3 µM
OVCAR-4 ovarian
  TGI: 41.5 µM
SNB-75 CNS
  TGI: 36.6 µM
BT-549 breast
  TGI: 33.3 µM
M14 melanoma
  TGI: 46.9 µM
RPMI-8226 leukemia
  TGI: 42.5 µM
SF-268 CNS
  TGI: 38.7 µM
HL-60(TB) leukemia
  TGI: > 100 µM
LOX IMVI melanoma
  TGI: 31.6 µM
NCI-H226 lung
  TGI: 48.6 µM
KM12 colon
  TGI: 27.7 µM
MALME-3M melanoma
  TGI: 30.3 µM
HCC-2998 colon
  TGI: 27.6 µM
EKVX NSCLC
  TGI: 35.7 µM
A498 renal
  TGI: 37.6 µM
